pIC50: −log10 of the molar value.
The molecules below were run against T1, Abl T315I kinase domain (unphosphorylated) (Mus musculus, UniProt P00520, T315I) (assay: Abl_T315I Bioassay (c-Abl PK/LDH coupled enzyme assay)). Settings: 10 μM ATP.
T1 construct: purified and unphosphorylated T315I Abl kinase domain; made in house; host or cells: E. coli BL21(DE3) strains
T1 sequence (P00520 242-493 T315I limits assumed): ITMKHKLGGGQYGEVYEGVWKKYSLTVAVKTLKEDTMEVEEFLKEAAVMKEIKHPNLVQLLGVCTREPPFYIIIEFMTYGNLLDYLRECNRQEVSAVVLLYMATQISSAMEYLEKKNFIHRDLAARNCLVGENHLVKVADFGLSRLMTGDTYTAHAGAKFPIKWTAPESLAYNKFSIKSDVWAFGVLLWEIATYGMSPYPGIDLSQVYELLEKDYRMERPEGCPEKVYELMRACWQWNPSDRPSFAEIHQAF
Assay type: biochemical
Source text: Although the first of these examples uses the kinase domain of a mutant form of Abl T315I (“Abl T315I KD”), the kinase assays may use various forms of mutant and wild type enzymes, including, for example, the entire protein, the kinase domain, or a portion thereof (e.g. Abl Y393F). The kinases used in the assays may also be of varying phosphorylation states. In the c-Abl example, a mutant kinase at a zero phosphorylation state was used.
In the c-Abl Pyruvate Kinase (PK)/Lactate Dehydrogenase (LDH) Coupled Assay the protein kinase dependant phosphorylation of a substrate peptide was coupled to the oxidation of NADH. The oxidation of NADH to NAD+ was detected by monitoring a decrease in absorbance at 340 nm.
Materials: Abl substrate peptide=EAIYAAPFAKKK (SEQ ID NO:1)-OH (Biopeptide, San Diego, Calif.); βNADH (Sigma Cat#N-8129, FW=709.4); 2M MgCl2; 1M HEPES buffer, pH 7.5; Phosphoenolpyruvate (PEP) (Sigma Cat#P-7002, FW=234); Lactate dehydrogenase (LDH) (Worthington Biochemical Cat#2756); Pyruvate Kinase (PK) (Sigma Cat#P-9136); ATP (Sigma Cat#A-3377, FW=551); Greiner 384-well UV star plate; and purified and unphosphorylated T315I Abl kinase domain.
Stock Solutions: 10 mM NADH (7.09 mg/ml in miliQH2O) made fresh daily; 10 mM Abl substrate peptide (13.4 mg/ml in miliQH2O) stored at −20° C.; 100 mM HEPES buffer, pH 7.5 (5 ml 1M stock+45 ml miliQH2O); 100 mM MgCl2 (5 ml 2M MgCl2+95 ml dH2O); 100 mM PEP (23.4 mg/ml in dH2O) stored at −20° C.; 10 mM ATP (5.51 mg/ml in dH2O) stored at −20° C. (diluted 50 μl into total of 10 ml miliQH2O daily=50 μM ATP working stock); 1000 U/ml PK (U/mg varies with lot) flash-frozen under liquid N2 and stored at −80° C.; and 1000 U/ml LDH (U/mg varies with lot) flash-frozen under liquid N2 and stored at −80° C.
Standard Assay Setup for 384-well format (50 μl reaction): 300 μM NADH; 10 mM MgCl2; 2 mM PEP; 45 U/ml PK; 60 U/ml LDH; 200 μM Abl substrate peptide; 2.5 μl test compound (in DMSO); 2 μg/ml Abl kinase domain; 10 μM ATP; 100 mM HEPES buffer. Positive controls contained DMSO with no test compound. Negative controls contained 5 μl of 0.5M EDTA (50 mM in the assay). The dephosphorylated form of the c-Abl T315I mutant was used in the biochemical screening assays. The kinase reaction was initiated at time t=0 by the addition of ATP.
Activity was measured by following the time-dependent loss of NADH by absorbance spectroscopy at 340 nm. The linear portion of the resulting progress curve was then analyzed by linear regression to get the activity in absorbance units/time, reported as the slope of that best fit line (moles/unit time can be calculated from using molar extinction coefficient for NADH at 340 nm, 6250M^−1 cm^−1).
Data was evaluated using the equation: Z′=1−[3*(σ++σ−)/|μ+−μ−|](Zhang, et al., 1999 J Biomol Screening 4(2) 67-73), where μ denotes the mean and σ the standard deviation. The subscript designates positive or negative controls. The Z′ score for a robust screening assay should be ≧0.50. The typical threshold=μ+−3*σ+. Any value that falls below the threshold was designated a “hit”.
Dose response was analyzed using the equation: y=min+{(max−min)/(1+10^[compound]−logIC50)}, where y is the observed initial slope, max=the slope in the absence of inhibitor, min=the slope at infinite inhibitor, and the IC50 is the [compound] that corresponds to ½ the total observed amplitude (Amplitude=max−min).
To measure modulation, activation, or inhibition of Abl KD, a test compound was added to the assay at a range of concentrations. Inhibitors may inhibit Abl KD activity at an IC50 in the micromolar range, the nanomolar range, or, for example, in the subnanomolar range.
An open-reading frame for c-Abl was amplified from a Mus musculus (mouse) cDNA library prepared from freshly harvested mouse liver using a commercially available kit (Invitrogen) by PCR using the following primers: […]
The c-Abl T315I KD (kinase domain) was purified as follows. […]

pIC50, > 7.30:
CNC(=O)c1cncc(-c2cnc3[nH]cc(-c4ccccc4OC)c3c2)c1 [AE1]
CNC(=O)c1cc(-c2cnc3[nH]cc(-c4ccccc4OC)c3c2)cs1 [AE2]
COc1ccccc1-c1c[nH]c2ncc(-c3csc(C(=O)N(C)C)c3)cc12 [AE3]
COc1ccccc1-c1c[nH]c2ncc(-c3ccc(CN(C)C)cc3)cc12 [AE8]
COc1ccccc1-c1c[nH]c2ncc(-c3cc[nH]c(=O)c3)cc12 [AE9]
COc1ccccc1-c1c[nH]c2ncc(-c3ccc4[nH]cc(CC(=O)O)c4c3)cc12 [AE10]
COc1ccccc1-c1c[nH]c2ncc(-c3ccc(S(N)(=O)=O)s3)cc12 [AE11]
COc1ccccc1-c1c[nH]c2ncc(-c3cccc(S(C)(=O)=O)c3)cc12 [AE13]
O=C(c1cncc(-c2cnc3[nH]cc(-c4ccc5cc[nH]c5c4)c3c2)c1)N1CCOCC1 [AE14]
N#Cc1cc(-c2cnc3[nH]cc(-c4ccc5[nH]ccc5c4)c3c2)ccc1O [AE20]
COc1ccccc1-c1c[nH]c2ncc(-c3ccc(S(N)(=O)=O)cc3)cc12 [AE21]
c1cc2cc(-c3c[nH]c4ncc(-c5ccc6[nH]cnc6c5)cc34)ccc2[nH]1 [AE22]
COc1ccccc1-c1c[nH]c2ncc(-c3ccc(O)c(CN4CCCN(C)CC4)c3)cc12 [AE41]
COc1ccccc1-c1c[nH]c2ncc(-c3cccc(C(=N)N4CCCCC4)c3)cc12 [AE42]
Oc1cccc(-c2cnc3[nH]cc(-c4ccc(O)c(F)c4)c3c2)c1 [AE48]
Oc1cccc(-c2cnc3[nH]cc(-c4ccn[nH]4)c3c2)c1 [AE49]
Nc1nc(-c2c[nH]c3ncc(-c4ccc5[nH]ccc5c4)cc23)cs1 [AE55]
COc1cc(-c2cnc3[nH]cc(-c4ccc(O)cc4)c3c2)ccc1O [AE58]
COc1cc(-c2cnc3[nH]cc(-c4ccccc4OC)c3c2)ccc1O [AE64]
COc1cc(-c2cnc3[nH]cc(-c4ccccc4OC)c3c2)ccc1OCCN1CCCC1 [AE65]
COc1ccccc1-c1c[nH]c2ncc(-c3ccc[nH]3)cc12 [AE67]
COCCOc1ccc(-c2cnc3[nH]cc(-c4ccccc4OC)c3c2)cc1OCCOC [AE68]

Source: patent publication US7709645B2, “Pyrrolo-pyridine kinase modulators” (SGX Pharmaceuticals, Inc., priority 2004, dated 2010)
